# Source: patent publication US20240124460A1, “METHODS AND COMPOSITIONS FOR TARGETED PROTEIN DEGRADATION” (Ranok Therapeutics (Hangzhou) Co. Ltd., priority 2020, published 2024)
# Columns and labels:
# [1] = tested on: MV-4-11 human acute myeloid leukemia; test: MV-4-11 CCK-8 proliferation assay; format: cell-based; settings: Homo sapiens, MV4-11; MV-4-11 cells, 72 hr
# Protocol: (§1) The following cancer cell lines were employed: A549 human lung carcinoma (ATCC, #CCL-185); BT-474 human breast carcinoma (ATCC, #HTB-20); MDA-MB-231 human breast adenocarcinoma (ATCC, #CRM−HTB-26); MDA-MB-468 human breast adenocarcinoma (ATCC, #HTB-132); MV-4-11 human acute myeloid leukemia (ATCC, #CRL-9591); and U-87 MG human glioblastoma (ATCC, #HTB-14). Cell lines were cultured essentially according to ATCC recommendations.
# (§2) 3-fold serial dilutions of each test compound were prepared ranging from 20 μM to 1.02 nM.
# (§3) % Inhibition=100−(D−B)/(S−B)*100%. • S: Absorbance of cells treated with DMSO • D: Absorbance of compound-treated cells • B: Absorbance of medium with DMSO without cells
# [2] = tested on: U-87 MG human glioblastoma; test: U87 MG CCK-8 proliferation assay; format: cell-based; settings: Homo sapiens, U-87 MG, 72 h, U-87 MG cells, read-out: U87MG CCK-8
# Protocol: as §1, §2, §3
EC50 [1] [nM],EC50 [2] [nM],SMILES
< 100,< 100,"CCOc1cc(N2CCC(C(=O)N3CCN(Cc4ccc(-n5c(O)nnc5-c5cc(C(C)C)c(O)cc5O)cc4)CC3)CC2)ccc1Nc1ncc2c(n1)N(S(C)(=O)=O)c1ccccc1C(=O)N2C [Compound 159, 2-((4-(4-(4-(4-(3-(2,4-dihydroxy-5-isopropylphenyl)-5-hydroxy-4H-1,2,4-triazol-4-yl)benzyl)piperazine-1-carbonyl)piperidin-1-yl)-2-ethoxyphenyl)amino)-5-methyl-11-(methylsulfonyl)-5,11-dihydro-6H-benzo[e]pyrimido[5,4-b][1,4]diazepin-6-one]"
< 100,100 to 1000,"CCOc1cc(N2CCC(C(=O)N3CCN(Cc4ccc(-n5c(O)nnc5-c5cc(C(C)C)c(O)cc5O)cc4)CC3)CC2)ccc1N(CC)c1ncc2c(n1)N(S(C)(=O)=O)c1ccccc1C(=O)N2C [Compound 160, 2-((4-(4-(4-(4-(3-(2,4-dihydroxy-5-isopropylphenyl)-5-hydroxy-4H-1,2,4-triazol-4-yl)benzyl)piperazine-1-carbonyl)piperidin-1-yl)-2-ethoxyphenyl)(ethyl)amino)-5-methyl-11-(methylsulfonyl)-5,11-dihydro-6H-benzo[e]pyrimido[5,4-b][1,4]diazepin-6-one]"
< 100,100 to 1000,"CCOc1cc(N2CCC(C(=O)N3CCC(CN4CCN(Cc5ccc(-n6c(C(=O)NC(C)C(F)(F)F)nnc6-c6cc(CC)c(OC(=O)C(C)C)cc6O)cc5)CC4)CC3)CC2)ccc1Nc1ncc2c(n1)N(S(C)(=O)=O)c1ccccc1C(=O)N2C (centres unmarked) [Compound 161, 4-(4-(4-((4-((1-(1-(3-ethoxy-4-((5-methyl-11-(methylsulfonyl)-6-oxo-6,11-dihydro-5H-benzo[e]pyrimido[5,4-b][1,4]diazepin-2-yl)amino)phenyl)piperidine-4-carbonyl)piperidin-4-yl)methyl)piperazin-1-yl)methyl)phenyl)-5-((1,1,1-trifluoropropan-2-yl)carbamoyl)-4H-1,2,4-triazol-3-yl)-2-ethyl-5-hydroxyphenyl isobutyrate]"
100 to 1000,100 to 1000,"CCOc1cc(N2CCC(C(=O)N3CCC(CN4CCN(Cc5ccc(-n6c(C(=O)NC(C)C(F)(F)F)nnc6-c6cc(CC)c(O)cc6OC(=O)C(C)C)cc5)CC4)CC3)CC2)ccc1Nc1ncc2c(n1)N(S(C)(=O)=O)c1ccccc1C(=O)N2C (centres unmarked) [Compound 162, 2-(4-(4-((4-((1-(1-(3-ethoxy-4-((5-methyl-11-(methylsulfonyl)-6-oxo-6,11-dihydro-5H-benzo[e]pyrimido[5,4-b][1,4]diazepin-2-yl)amino)phenyl)piperidine-4-carbonyl)piperidin-4-yl)methyl)piperazin-1-yl)methyl)phenyl)-5-((1,1,1-trifluoropropan-2-yl)carbamoyl)-4H-1,2,4-triazol-3-yl)-4-ethyl-5-hydroxyphenyl isobutyrate]"
< 100,< 100,"CCOc1cc(N2CCC(C(=O)N3CCN(Cc4ccc(-n5c(C(=O)NCCN(CC)CC)nnc5-c5cc(C(C)C)c(O)cc5O)cc4)CC3)CC2)ccc1Nc1ncc2c(n1)N(C)c1ccccc1C(=O)N2C [Compound 163, N-(2-(diethylamino)ethyl)-5-(2,4-dihydroxy-5-isopropylphenyl)-4-(4-((4-(1-(4-((5,11-dimethyl-6-oxo-6,11-dihydro-5H-benzo[e]pyrimido[5,4-b][1,4]diazepin-2-yl)amino)-3-ethoxyphenyl)piperidine-4-carbonyl)piperazin-1-yl)methyl)phenyl)-4H-1,2,4-triazole-3-carboxamide]"
< 100,< 100,"CCOc1cc(N2CCC(C(=O)N3CCN(Cc4ccc(-n5c(C(=O)NCCN(CC)CC)nnc5-c5cc(C(C)C)c(O)cc5O)cc4)CC3)CC2)ccc1Nc1ncc2c(n1)N(S(C)(=O)=O)c1ccccc1C(=O)N2C [Compound 164, N-(2-(diethylamino)ethyl)-5-(2,4-dihydroxy-5-isopropylphenyl)-4-(4-((4-(1-(3-ethoxy-4-((5-methyl-11-(methylsulfonyl)-6-oxo-6,11-dihydro-5H-benzo[e]pyrimido[5,4-b][1,4]diazepin-2-yl)amino)phenyl)piperidine-4-carbonyl)piperazin-1-yl)methyl)phenyl)-4H-1,2,4-triazole-3-carboxamide]"
< 100,100 to 1000,"CCOc1cc(N2CCC(C(=O)NCc3ccc(CN(CC)Cc4ccc(-n5c(O)nnc5-c5cc(C(C)C)c(O)cc5O)cc4)cc3)CC2)ccc1Nc1ncc2c(n1)N(C)c1ccccc1C(=O)N2C [Compound 165, N-(4-(((4-(3-(2,4-dihydroxy-5-isopropylphenyl)-5-hydroxy-4H-1,2,4-triazol-4-yl)benzyl)(ethyl)amino)methyl)benzyl)-1-(4-((5,11-dimethyl-6-oxo-6,11-dihydro-5H-benzo[e]pyrimido[5,4-b][1,4]diazepin-2-yl)amino)-3-ethoxyphenyl)piperidine-4-carboxamide]"
< 100,100 to 1000,"CCOc1cc(N2CCC(C(=O)NCc3ccc(CN(CC)Cc4ccc(-n5c(O)nnc5-c5cc(C(C)C)c(O)cc5O)cc4)cc3)CC2)ccc1Nc1ncc2c(n1)N(S(C)(=O)=O)c1ccccc1C(=O)N2C [Compound 166, N-(4-(((4-(3-(2,4-dihydroxy-5-isopropylphenyl)-5-hydroxy-4H-1,2,4-triazol-4-yl)benzyl)(ethyl)amino)methyl)benzyl)-1-(3-ethoxy-4-((5-methyl-11-(methylsulfonyl)-6-oxo-6,11-dihydro-5H-benzo[e]pyrimido[5,4-b][1,4]diazepin-2-yl)amino)phenyl)piperidine-4-carboxamide]"
< 100,< 100,"CCOc1cc(N2CCC(C(=O)N3CCN(Cc4ccc(-n5c(C(=O)NCCN6CCN(C)CC6)nnc5-c5cc(C(C)C)c(O)cc5O)cc4)CC3)CC2)ccc1Nc1ncc2c(n1)N(C)c1ccccc1C(=O)N2C [Compound 167, 5-(2,4-dihydroxy-5-isopropylphenyl)-4-(4-((4-(1-(4-((5,11-dimethyl-6-oxo-6,11-dihydro-5H-benzo[e]pyrimido[5,4-b][1,4]diazepin-2-yl)amino)-3-ethoxyphenyl)piperidine-4-carbonyl)piperazin-1-yl)methyl)phenyl)-N-(2-(4-methylpiperazin-1-yl)ethyl)-4H-1,2,4-triazole-3-carboxamide]"
< 100,< 100,"CCOc1cc(N2CCC(C(=O)NCc3ccc(CN(C)Cc4ccc(-n5c(O)nnc5-c5cc(C(C)C)c(O)cc5O)cc4)cc3)CC2)ccc1Nc1ncc2c(n1)N(S(C)(=O)=O)c1ccccc1C(=O)N2C [Compound 170, N-(4-(((4-(3-(2,4-dihydroxy-5-isopropylphenyl)-5-hydroxy-4H-1,2,4-triazol-4-yl)benzyl)(methyl)amino)methyl)benzyl)-1-(3-ethoxy-4-((5-methyl-11-(methylsulfonyl)-6-oxo-6,11-dihydro-5H-benzo[e]pyrimido[5,4-b][1,4]diazepin-2-yl)amino)phenyl)piperidine-4-carboxamide]"
